The results in this text go back to article PMC6299835 (Toxicon : official journal of the International Society on …, 2018).

The target of test [1] is human MrgprX1 (hMrgprX1) (Homo sapiens, UniProt Q96LB2). Put plainly: cell-based. The format is cell-based.
In test [2] the test system is hMrgprX1;Mrgpr-cluster∆−/− transgenic mouse. Particulars: in vivo.

No end group written: not given here.

human MrgprX1 (hMrgprX1), sequence (Q96LB2 whole entry, looked up): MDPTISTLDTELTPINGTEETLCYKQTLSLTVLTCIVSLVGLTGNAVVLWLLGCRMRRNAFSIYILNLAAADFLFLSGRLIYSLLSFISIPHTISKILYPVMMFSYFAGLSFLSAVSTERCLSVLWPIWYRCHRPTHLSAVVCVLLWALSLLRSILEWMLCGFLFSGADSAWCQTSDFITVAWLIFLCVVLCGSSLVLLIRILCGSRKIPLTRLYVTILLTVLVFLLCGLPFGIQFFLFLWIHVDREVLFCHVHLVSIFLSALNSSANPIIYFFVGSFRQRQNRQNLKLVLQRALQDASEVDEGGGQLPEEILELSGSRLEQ

Turning to HSGILLAWSGPRNRFVRI-NH2 [CNF-Tx2], in test [1], the “Activation of hMrgprX1” value is “activates”; the EC50 (as a rule, the concentration at which the effect is half-maximal) is 0.54 µM; the “Potency in activating hMrgprX1 relative to CNF-Vc1” value is reported as “at least threefold more potent”. In test [2], the “Itch-related scratching after intradermal cheek injection of peptide” value is “induces significant scratching”.
For the substance WSGPRNRFVRF-NH2 [CNF-Vc1(7–18)], in test [1], the “Activation of hMrgprX1” value is listed as “can activate”.
